Patent US11939241B2, “Stable percarboxylic acid compositions and uses thereof” (Ecolab USA Inc., priority 2012, dated 2024)

Assay: Quantitation of peroxide gases of decomposition (U-tube manometer)
Format: physicochemical
Description: The volume of peroxides' gases of decomposition was measured using a water filled U-tube fitted with a minimal volume tubing connected to a non-coring syringe needle. The manometer made of pyrex glass was filled partially with deionized water colored with FD&C blue dye #1 and 1,000 ppm of non-ionic surfactant. The dye allows for increased visibility of the water columns and the surfactant lowers the surface tension allowing for unbroken water columns. The manometer was also fitted with a metric ruler to allow the convenient determination of the column heights difference. Given that 1 atmosphere of pressure corresponds with […] of water column height and the limit of resolution on the column and ruler combination is about 1 mm, the signal/noise ratio approximates […].
Procedure. Four head space vials were double rinsed with the sample solution before adding 5 mL of sample solution (via Repeat Pipettor) and sealing the vials with a silicone backed PTFE septum with aluminum cap. Immediately after sealing the vials the temperature and barometric pressure were recorded. A set of water blank replicates of the same volume were also included. The sealed vials were stored for 24-48 hours at ambient temperatures inside a dark cabinet to allow for optimal gas pressure generation.
Calculations. By calibration of the U-tube water column displacement using a precision gas syringe, the water column height to gas volume ratio was calculated. Using the assumption of peroxide decay to molecular oxygen (ignoring CO2 or CO gases etc.), these values were converted to gas volumes and the loss of available oxygen in the sample was thereby calculated using the formulae below: 2 moles of RCO3H→2 moles of RCO2H+1 mole of O2(22.4 L of O2 at standard temperature and pressure) And 2 moles of H2O2→2 moles of H2O+1 mole of O2(22.4 L of O2 at standard temperature and pressure)

In the case of Hydrogen peroxide [F], the “Net O2 Lost” value (5 mL sample, sealed vial, 24-48 hours, ambient temperature) is reported as 0.017 g, the “Net Gas Gen.” value (5 mL sample, sealed vial, 24-48 hours, ambient temperature, dark) is reported as 11.9 mL and the “Rel. Loss O2” value (24-48 hours, ambient temperature) is reported as 0.02% w/w, %. For the same substance, the “Initial H2O2” value (initial) was 50.00 w/w, %, the “Initial POAA” value (initial) was 0.00 w/w, % and the “Initial O2” value (initial available oxygen) was 23.53 w/w, %.
